Data published in publication PMC4164784, “4E-BPs require non-canonical 4E-binding motifs and a lateral surface of eIF4E to repress translation” (Nature Communications, 2014).
No end group written: not given here.

Tests used:
[1] = system: eIF4E (II-AA mutant)–eIF4G complex; experiment: Competition assay, displacement of GST-eIF4G from preassembled eIF4E (II-AA)–eIF4G complexes; assay type: biochemical, Drosophila melanogaster; conditions: Fig. 4; 2 μM complex, GB1-fused competitor, 20 min at 4 °C, Strep-Tactin pull down; n=2
Experimental: To obtain the preassembled eIF4E–eIF4G complexes used in Figs 4 and 5d–g, full-length eIF4E (WT or the II-AA mutant) containing an N-terminal SNH-tag was coexpressed with an N-terminal GST-tagged eIF4G (residues 578–650). The cells were lysed by sonication in lysis buffer containing 50 mM HEPES (pH 7.2), 300 mM NaCl and 2 mM DTT. The complexes were purified from the cleared lysates using Protino Glutathione Agarose 4B beads (Machery-Nagel). The complex was further purified using a heparin column (HiTrap Heparin HP 5 ml, GE Healthcare) and a final size exclusion chromatography (Superdex 200 16/60, GE Healtcare) in 20 mM HEPES (pH 7.2), 200 mM NaCl and 2 mM DTT.
For the titration experiments shown in Fig. 4, 2 μM of purified complexes containing SHN-eIF4E (WT or II-AA mutant) bound to GST-eIF4G (residues 578–650) were incubated with increasing amounts (2–20 μM) of purified competitor proteins for 20 min at 4 °C. The eIF4E-bound proteins were recovered via Strep-Tactin Sepharose pull down and eluted with lysis buffer containing 2.5 mM desthiobiotin. The proteins were analyzed by 15% SDS–PAGE followed by staining with Coomassie blue staining. […]
presence of MBP (negative control), increasing amounts of 4E-BP peptides or eIF4G-GB1 in […]
The amounts of GST-eIF4G bound to eIF4E in each experimental condition were determined using the Image J software after Coomassie blue staining. To rule out the possibility that changes in the amount of GST-eIF4G bound to eIF4E resulted from variations in the loading volume, all values were normalized to the levels of SHN-eIF4E present in each condition. These values were set to 100 in the presence of MBP.
Each experiment was repeated at least twice. (e,f) Quantification of the experiments shown in Fig. 5d–g. The amounts of GST-eIF4G remaining bound to eIF4E in the presence of MBP, 4E-BP peptides or eIF4G-GB1 were normalized to those of eIF4E and set to 100 in the presence of MBP. […]
micrographs of fixed S2 cells expressing HA-4E-T and GFP-Tral. The localization of HA-4E-T was determined by indirect immunofluorescence using an anti-HA antibody. […]

[2] = system: endogenous eIF4E and HA-tagged 4E-BPs in S2 cells; experiment: Immunofluorescence localization in S2 cells; assay type: cell-based, Drosophila melanogaster; conditions: −LMB; for localization of endogenous eIF4E (in words): S2 cells overexpressing 4E-BP or mutant; for localization of the 4E-BP (in words): S2 cells, steady-state
endogenous eIF4E = experiment: Coimmunoprecipitation / m7GTP pull-down with endogenous eIF4E in S2 cell lysates; assay type: cell-based, Drosophila melanogaster; conditions: western blot
Procedure, shortened: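 S2 cell lysates expressing HA-tagged 4E-BPs (CUP, Thor, 4E-T), eIF4G or mutants, immunoprecipitated with anti-eIF4E or anti-HA antibodies, or pulled down with m7GTP beads for 1 h at 4 °C. Washes in NET buffer (50 mM Tris pH 7.4, 150 mM NaCl, 1 mM EDTA, 0.1% Triton X-100). Bound proteins detected by anti-HA/anti-eIF4E western blot; pre-immune serum and HA-MBP as negative controls.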

What does the source list for “4E-T C+NC: 4E-T residues 9–44, eIF4E-binding region short, C-terminal GB1”?
displacement of eIF4G from eIF4E II-AA–eIF4G complex (in words) [1]: did not efficiently displace eIF4G; localization of endogenous eIF4E (in words) [2]: the number of eIF4E-positive P-bodies was reduced; localization of the 4E-BP (in words) [2]: still localized to P-bodies

What does the source list for “4E-T C: 4E-T residues 9–21, canonical motif”?
interaction with endogenous eIF4E (in words) (endogenous eIF4E): drastic reduction; localization of endogenous eIF4E (in words) [2]: the number of eIF4E-positive P-bodies was reduced; localization of the 4E-BP (in words) [2]: still localized to P-bodies

“CUP C+NC: CUP residues 325–376, eIF4E-binding region short, C-terminal GB1 (KSYTRSRLMDIRNGMFNALMHRSKESFVMPRIATCDDIELEGRLRRMNIWRT-GB1; UniProt Q9VMA3 325-376, looked up, fragment)” was tested. Which “displacement of eIF4G from eIF4E II-AA–eIF4G complex (in words)” value [1] did it give?
The value was “did not efficiently displace eIF4G”.

For “Thor C+NC: Thor residues 50–83, eIF4E-binding region short, C-terminal GB1 (TKLIYERAFMKNLRGSPLSQTPPSNVPSCLLRGT-GB1; UniProt Q9XZ56 50-83, looked up, fragment)”, which “displacement of eIF4G from eIF4E II-AA–eIF4G complex (in words)” value [1] is on record?
The value was “did not efficiently displace eIF4G”.

How did the “interaction with endogenous eIF4E (in words)” value (endogenous eIF4E) turn out when “Thor C: Thor residues 50–63, canonical motif” was run?
Its value is “disrupted the interaction with eIF4E”.
